Earlier results as cited in patent publication US9125929B2, “Trauma therapy” (Hibernation Therapeutics, A KF LLC, priority 2006, dated 2015).
Blank lines part the entries; values can stand above or below the molecule they belong to.

Experiments:
[1] = orally and/or intravenous, 10, 25, 50 and 100 mg/kg body weight
NK(2) receptor = target: T1, NK(2) receptor (Homo sapiens, UniProt P21452); conditions: NK(1) over NK(2)
T1 sequence (P21452 1-398): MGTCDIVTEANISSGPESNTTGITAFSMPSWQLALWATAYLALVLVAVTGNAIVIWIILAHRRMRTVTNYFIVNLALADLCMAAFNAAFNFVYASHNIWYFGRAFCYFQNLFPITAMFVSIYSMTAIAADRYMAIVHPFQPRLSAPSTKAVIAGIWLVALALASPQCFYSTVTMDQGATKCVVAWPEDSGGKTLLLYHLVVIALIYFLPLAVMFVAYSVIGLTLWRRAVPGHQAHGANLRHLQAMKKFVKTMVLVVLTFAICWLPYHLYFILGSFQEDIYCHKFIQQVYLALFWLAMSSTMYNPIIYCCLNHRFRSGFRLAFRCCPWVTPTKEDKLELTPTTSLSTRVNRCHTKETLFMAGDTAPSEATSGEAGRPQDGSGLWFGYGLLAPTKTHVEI

human NK(1) receptor = human NK(1) receptor (Homo sapiens, UniProt P25103); conditions: read-out: K(i) for the human NK(1) receptor
NK(3) receptor = target: T2, NK(3) receptor (Homo sapiens, UniProt P29371); conditions: NK(1) over NK(3)
T2 sequence (P29371 1-465): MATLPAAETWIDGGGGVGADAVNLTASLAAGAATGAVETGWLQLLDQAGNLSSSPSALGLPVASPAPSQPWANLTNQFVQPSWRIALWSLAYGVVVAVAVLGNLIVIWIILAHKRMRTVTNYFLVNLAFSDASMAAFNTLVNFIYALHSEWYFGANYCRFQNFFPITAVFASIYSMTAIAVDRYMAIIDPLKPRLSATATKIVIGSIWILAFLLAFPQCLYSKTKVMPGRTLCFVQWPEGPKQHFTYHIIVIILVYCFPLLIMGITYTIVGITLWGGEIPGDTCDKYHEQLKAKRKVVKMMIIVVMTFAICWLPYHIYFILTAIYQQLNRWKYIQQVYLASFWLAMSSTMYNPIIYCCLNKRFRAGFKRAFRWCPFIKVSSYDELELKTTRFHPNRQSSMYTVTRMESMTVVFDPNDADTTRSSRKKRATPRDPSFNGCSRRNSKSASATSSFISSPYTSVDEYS

[2] = 400 mg daily tablets

Chain of human NK(1) receptor (P25103 whole entry): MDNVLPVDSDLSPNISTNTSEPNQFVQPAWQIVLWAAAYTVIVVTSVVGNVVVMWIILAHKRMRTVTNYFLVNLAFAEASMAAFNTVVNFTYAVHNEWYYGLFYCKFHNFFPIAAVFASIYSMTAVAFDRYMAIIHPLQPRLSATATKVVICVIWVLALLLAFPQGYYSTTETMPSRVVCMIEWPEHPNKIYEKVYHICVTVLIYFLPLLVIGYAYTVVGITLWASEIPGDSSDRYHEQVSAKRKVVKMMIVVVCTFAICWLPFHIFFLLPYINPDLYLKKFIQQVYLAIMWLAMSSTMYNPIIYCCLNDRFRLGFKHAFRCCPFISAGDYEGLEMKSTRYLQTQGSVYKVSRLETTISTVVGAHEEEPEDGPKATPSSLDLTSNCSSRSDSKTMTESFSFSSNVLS

SMILES: NC(=O)c1ncn([C@@H]2O[C@H](CO)[C@@H](O)[C@H]2O)c1N [Acadesine, 5-amino-4-imidazole carboxamide ribonucleoside]
safety in humans [1]: safe

half life in the blood: about 10 seconds
SMILES: Nc1ncnc2c1ncn2[C@@H]1O[C@H](CO)[C@@H](O)[C@H]1O [adenosine, 6-amino-9-β-D-ribofuranosyl-9H-purine]

selectivity toward NK(2) receptor (NK(2) receptor): over 200 fold | Ki (human NK(1) receptor): 450 pM | selectivity toward NK(3) receptor (NK(3) receptor): over 200 fold
SMILES: Cc1cccc(C)c1NC(=O)C[C@H]1CCN(C(=O)c2cc(C(F)(F)F)cc(C(F)(F)F)c2)[C@@H](Cc2ccccc2)C1.O=C(O)C[C@H](O)C(=O)O (relative stereo) [R116301, (2R-trans)-4-[1-[3,5-bis(trifluoromethyl)benzoyl]-2-(phenylmethyl)-4-piperidinyl]-N-(2,6-dimethylphenyl)-1-acetamide(S)-Hydroxybutanedioate]

plasma level [2]: about 0.4 microgram/ml | plasma level (concentration) [2]: ~800 nM
SMILES: OCCN(CCO)c1nc(N2CCCCC2)c2nc(N(CCO)CCO)nc(N3CCCCC3)c2n1 [Dipyridamole]
